Data: publication PMC6897945, “CytA, a reductase in the cytorhodin biosynthesis pathway, inactivates anthracycline drugs in Streptomyces” (Communications Biology, 2019)
Read-outs that look alike come from different tables or passages of the source.

Legend:
[1] = Cytotoxic activity, MTT method; type: cell-based; settings: human
Source text: (§1) All data were obtained in triplicate and are presented as means.

[2] = test system: A549 human lung cancer cell line; experiment: Cytotoxic activity, MTT method; type: cell-based; settings: A549, read-out: Cytotoxic activities IC50, A549
Source text: as §1

[3] = test system: HeLa human cervical carcinoma cell line; experiment: Cytotoxic activity, MTT method; type: cell-based; settings: read-out: Cytotoxic activities IC50, HeLa
Source text: as §1

[4] = test system: HepG2 human hepatocellular carcinoma cell line; experiment: Cytotoxic activity, MTT method; type: cell-based; settings: HepG2, read-out: Cytotoxic activities IC50, HepG2
Source text: as §1

[5] = test system: MCF-7 human breast adenocarcinoma cell line; experiment: Cytotoxic activity, MTT method; type: cell-based; settings: MCF7, read-out: Cytotoxic activities IC50, MCF-7
Source text: as §1

[6] = test system: MDA-MB-231 human triple negative breast adenocarcinoma cell line; experiment: Cytotoxic activity, MTT method; type: cell-based; settings: MDA-MB-231, read-out: Cytotoxic activities IC50, MDA-MB-231
Source text: as §1

[7] = test system: MDA-MB-468 human triple negative breast adenocarcinoma cell line; experiment: Cytotoxic activity, MTT method; type: cell-based; settings: MDA-MB-468, read-out: Cytotoxic activities IC50, MDA-MB-468
Source text: as §1

[8] = test system: RKO human colorectal carcinoma cell line; experiment: Cytotoxic activity, MTT method; type: cell-based; settings: read-out: Cytotoxic activities IC50, RKO
Source text: as §1

[9] = test system: Streptomyces sp. SCSIO 1666 ΔcytA mutant strain; experiment: Growth inhibition zone assay; type: cell-based; settings: Streptomyces, read-out: inhibition zone
Source text: We also noted that the ∆cytA mutant strain accumulated small amounts (80~100-fold lower than WT producer) of the immediate biosynthetic precursors of cosmomycins A (3) and B (4). The in vitro antimicrobial activities of compounds 1–13 against a panel of gram-positive bacteria (Table 2) provided some insight into the possible physiological significance of CytA-catalyzed reductions. Furthermore, we had observed that the ΔcytA mutant strain is clearly impaired relative to the WT strain upon addition of 6 or 7 as potential substrates. To evaluate this effect, we probed the sensitivity of Streptomyces sp. SCSIO 1666 to 6 and 7 in an inhibition zone assay (Fig. 3). A clear inhibition zone (16 mm) using the ΔcytA mutant plate was observed when supplemented with 1 μg of 6 or 7. […] That CytA production endows cosmomycin resistance provides strong evidence that the cytA gene directly confers Streptomyces. sp. SCSIO 1666 with the ability to protect itself from the effects by self-resistance to cosmomycins C and D.
Fig. 3 Sensitivity of Streptomyces sp. SCSIO 1666 toward cosmomycin C (6) and cosmomycin D (7) (1 μg) as determined by growth inhibition zone assays. […] TEXT PRINTED IN THE PICTURE: 6: ΔcytA mutant strain: 16 mm DOUBTS OF THE COPYIST ABOUT THIS PICTURE: 6, ΔcytA mutant strain: the small yellow print reads 16 mm, but it could be 15 or 18 mm / 6: the yellow double arrow marked 16 mm spans the zone around disc 6. The picture prints no measure name, so it may be the inhibition zone diameter or only a scale mark

[10] = test system: Staphylococcus aureus; design: method as in earlier work; settings: 6 vs 3, 7 vs 4; cited from earlier work
[11] = test system: MDA-MB-468 cells; settings: read-out: IC50 against MDA-MB-468 cells; cited from earlier work
[12] = Huvec-12 normal cell line, read-out: Cytotoxic activities IC50, Huvec-12
[13] = L02 normal cell line, read-out: Cytotoxic activities IC50, L02

Compound `CC[C@@]1(O)C[C@H](O[C@H]2C[C@H](N(C)C)[C@@H](O[C@H]3C[C@H](O)[C@@H](O[C@H]4CC[C@H](O)[C@H](C)O4)[C@H](C)O3)[C@H](C)O2)c2c(O)c3c(c(O)c2[C@H]1O[C@H]1C[C@H](N(C)C)[C@@H](O[C@H]2CC[C@H](O[C@H]4CC[C@H](O)[C@H](C)O4)[C@H](C)O2)[C@H](C)O1)C(=O)c1cccc(O)c1C3=O` [Compound 6, cosmomycin C] has an IC50 [1, 12] of 290 nM, an IC50 [1, 13] of 100 nM and an IC50 [2] of 35 nM. It also gave an IC50 [3] of 17 nM, an IC50 [4] of 24 nM and an IC50 [5] of 270 nM. The IC50 [6] was 640 nM, the IC50 [7] was 500 nM and the IC50 [8] was 17 nM. The zone of inhibition at 1 µg/disc [9] was 16 mm, the “fold more active against Staphylococcus aureus than reduced congeners 3 and 4, respectively” value [10] was > 100 fold and the IC50 [11] was 210 nM.

Compound `CC[C@@]1(O)C[C@H](O[C@H]2C[C@H](N(C)C)[C@H](O[C@H]3C[C@H](O)[C@H](O[C@H]4CC[C@H](O)[C@H](C)O4)[C@H](C)O3)[C@H](C)O2)c2c(O)c3c(c(O)c2[C@H]1O[C@H]1C[C@H](N(C)C)[C@H](O[C@H]2C[C@H](O)[C@H](O[C@H]4CC[C@H](O)[C@H](C)O4)[C@H](C)O2)[C@H](C)O1)C(=O)c1cccc(O)c1C3=O` [Compound 7, cosmomycin D] has an IC50 [1, 12] of 300 nM, an IC50 [1, 13] of 130 nM and an IC50 [2] of 19 nM. For the same compound, the IC50 [3] was 110 nM, the IC50 [4] was 31 nM and the IC50 [5] was 510 nM. It also gave an IC50 [6] of 660 nM, an IC50 [7] of 1840 nM and an IC50 [8] of 99 nM. For the same compound, the zone of inhibition at 1 µg/disc [9] was 16 mm and the “fold more active against Staphylococcus aureus than reduced congeners 3 and 4, respectively” value [10] was > 100 fold.
